Assay results from patent publication US10913727B2, “Modulators of the integrated stress pathway” (Calico Life Sciences LLC, priority 2016, dated 2021).

System: HEK293T cells carrying the ATF4 luciferase reporter
Assay: ATF4-Luc assay, in vitro model of Vanishing Cell White Matter Disease (VWMD)
Type: cell-based
Settings: Homo sapiens, HEK-293T, 1 μg/mL tunicamycin, 7 hours, One Glo luminescence
Method in brief: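 Compound at 200 nM and tunicamycin at 1 μg/mL were given together for 7 h to HEK293T cells stably transduced with an ATF4 5′-UTR-driven firefly luciferase reporter. Read-out by luminescence, reported as EC50.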

SMILES | EC50 [nM]
Cn1cc(C(=O)NC23CC(NC(=O)COc4ccc(Cl)c(F)c4)(C2)C3)cn1 [Compound 246, N-{3-[2-(4-chloro-3-fluorophenoxy)acetamido]bicyclo[1.1.1]pentan-1-yl}-1-methyl-1H-pyrazole-4-carboxamide] | 250 to 1000
O=C(COc1ccc(Cl)c(F)c1)NC12CCC(NC(=O)c3cc(CO)ccn3)(CC1)C[C@@H]2O [Compound 680, N-{(3S)-4-[2-(4-chloro-3-fluorophenoxy)acetamido]-3-hydroxybicyclo[2.2.2]octan-1-yl}-4-(hydroxymethyl)pyridine-2-carboxamide] | < 50
CCc1cc(C(=O)NC23CCC(NC(=O)COc4ccc(Cl)c(F)c4)(C2)C3)n(C)n1 [Compound 571, N-{4-[2-(4-chloro-3-fluorophenoxy)acetamido]bicyclo[2.1.1]hexan-1-yl}-3-ethyl-1-methyl-1H-pyrazole-5-carboxamide] | 250 to 1000
O=C(COc1ccc(Cl)c(F)c1)NC12CC(NC(=O)c3cccc(C(F)(F)F)n3)(C1)C2 [Compound 781, N-{3-[2-(4-chloro-3-fluorophenoxy)acetamido]bicyclo[1.1.1]pentan-1-yl}-6-(trifluoromethyl)pyridine-2-carboxamide] | > 2000
Cc1nocc1C(=O)NC12CCC(NC(=O)COc3ccc(Cl)c(F)c3)(CC1)C(O)C2 (stereo not drawn) [Compound 605, N-{4-[2-(4-chloro-3-fluorophenoxy)acetamido]-3-hydroxybicyclo[2.2.2]octan-1-yl}-3-methyl-1,2-oxazole-4-carboxamide] | > 2000
O=C(COc1ccc(Cl)c(F)c1)NC12CC(NC(=O)c3ccc(C(F)F)cn3)(C1)C2 [Compound 233, N-{3-[2-(4-chloro-3-fluorophenoxy)acetamido]bicyclo[1.1.1]pentan-1-yl}-5-(difluoromethyl)pyridine-2-carboxamide] | < 50
O=C(COc1ccc(Cl)c(Cl)c1)NC12CC(NC(=O)c3ccc(C(F)F)nc3)(C1)C2 [Compound 927, N-{3-[2-(3,4-dichlorophenoxy)acetamido]bicyclo[1.1.1]pentan-1-yl}-6-(difluoromethyl)pyridine-3-carboxamide] | 50 to 250
COc1ccc(F)c(C(=O)NC23CC(NC(=O)COc4ccc(Cl)c(F)c4)(C2)C3)c1 [Compound 520, N-{3-[2-(4-chloro-3-fluorophenoxy)acetamido]bicyclo[1.1.1]pentan-1-yl}-2-fluoro-5-methoxybenzamide] | 250 to 1000
CC(=O)Nc1c(C)nn(C)c1C(=O)NC12CCC(NC(=O)COc3ccc(Cl)c(F)c3)(CC1)C(O)C2 (stereo not drawn) [Compound 505, 4-acetamido-N-{4-[2-(4-chloro-3-fluorophenoxy)acetamido]-3-hydroxybicyclo[2.2.2]octan-1-yl}-1,3-dimethyl-1H-pyrazole-5-carboxamide] | > 2000
Cc1nccnc1NC12CC(NC(=O)COc3ccc(Cl)c(F)c3)(C1)C2 [Compound 678, 2-(4-chloro-3-fluorophenoxy)-N-{3-[(3-methylpyrazin-2-yl)amino]bicyclo[1.1.1]pentan-1-yl}acetamide] | 1000 to 2000
O=C(COc1ccc(Cl)c(F)c1)NC12CCC(NC(=O)c3cnn4ccccc34)(CC1)CC2O (stereo not drawn) [Compound 596, N-{4-[2-(4-chloro-3-fluorophenoxy)acetamido]-3-hydroxybicyclo[2.2.2]octan-1-yl}pyrazolo[1,5-a]pyridine-3-carboxamide] | 250 to 1000
Cn1c(C(=O)NC23CC(NC(=O)COc4ccc(Cl)c(F)c4)(C2)C3)cc2sccc21 [Compound 841, N-{3-[2-(4-chloro-3-fluorophenoxy)acetamido]bicyclo[1.1.1]pentan-1-yl}-4-methyl-4H-thieno[3,2-b]pyrrole-5-carboxamide] | 250 to 1000
Cc1cn2ccnc(NC34CC(NC(=O)COc5ccc(Cl)c(F)c5)(C3)C4)c2n1 [Compound 463, 2-(4-chloro-3-fluorophenoxy)-N-{3-[(2-methylimidazo[1,2-a]pyrazin-8-yl)amino]bicyclo[1.1.1]pentan-1-yl}acetamide] | 50 to 250
O=C(COc1ccc(Cl)c(F)c1)NC12CC(Nc3cccc(-c4ccc(Cl)cc4)n3)(C1)C2 [Compound 398, 2-(4-chloro-3-fluorophenoxy)-N-(3-{[6-(4-chlorophenyl)pyridin-2-yl]amino}bicyclo[1.1.1]pentan-1-yl)acetamide] | > 2000
Cn1nc(C(=O)NC23CCC(NC(=O)COc4ccc(Cl)c(F)c4)(CC2)C(O)C3)cc1C(F)(F)F (stereo not drawn) [Compound 565, N-{4-[2-(4-chloro-3-fluorophenoxy)acetamido]-3-hydroxybicyclo[2.2.2]octan-1-yl}-1-methyl-5-(trifluoromethyl)-1H-pyrazole-3-carboxamide] | 50 to 250
Cn1cc(-c2ccnc(NC34CC(NC(=O)COc5ccc(Cl)c(F)c5)(C3)C4)n2)cn1 [Compound 381, 2-(4-chloro-3-fluorophenoxy)-N-(3-{[4-(1-methyl-1H-pyrazol-4-yl)pyrimidin-2-yl]amino}bicyclo[1.1.1]pentan-1-yl)acetamide] | 1000 to 2000
O=C(COc1ccc(Cl)c(F)c1)NC12CC(NC(=O)c3cccc4nsnc34)(C1)C2 [Compound 803, N-{3-[2-(4-chloro-3-fluorophenoxy)acetamido]bicyclo[1.1.1]pentan-1-yl}-2,1,3-benzothiadiazole-4-carboxamide] | > 2000

SMILES | EC50 [nM]
O=C(COc1ccc(Cl)c(F)c1)NC12CC(NC(=O)c3cnoc3C3CC3)(C1)C2 [Compound 900, N-{3-[2-(4-chloro-3-fluorophenoxy)acetamido]bicyclo[1.1.1]pentan-1-yl}-5-cyclopropyl-1,2-oxazole-4-carboxamide] | > 2000
Cc1cc(C)n2nc(C(=O)NC34CCC(NC(=O)COc5ccc(Cl)c(F)c5)(CC3)[C@@H](O)C4)nc2n1 [Compound 750, N-{(3S)-4-[2-(4-chloro-3-fluorophenoxy)acetamido]-3-hydroxybicyclo[2.2.2]octan-1-yl}-5,7-dimethyl[1,2,4]triazolo[1,5-a]pyrimidine-2-carboxamide] | > 2000
O=C(COc1ccc(Cl)c(F)c1)NC12CC(NC(=O)c3ccc4nccnc4c3)(C1)C2 [Compound 766, N-{3-[2-(4-chloro-3-fluorophenoxy)acetamido]bicyclo[1.1.1]pentan-1-yl}quinoxaline-6-carboxamide] | > 2000
O=C(COc1ccc(Cl)c(F)c1)NC12CCC(NC(=O)c3coc4c3C(=O)CCC4)(CC1)C(O)C2 (stereo not drawn) [Compound 222, N-{4-[2-(4-chloro-3-fluorophenoxy)acetamido]-2-hydroxybicyclo[2.2.2]octan-1-yl}-4-oxo-4,5,6,7-tetrahydro-1-benzofuran-3-carboxamide] | > 2000
Cc1ncsc1C(=O)NC12CC(NC(=O)COc3ccc(Cl)c(F)c3)(C1)C2 [Compound 558, N-{3-[2-(4-chloro-3-fluorophenoxy)acetamido]bicyclo[1.1.1]pentan-1-yl}-4-methyl-1,3-thiazole-5-carboxamide] | 1000 to 2000
O=C(COc1ccc(Cl)c(F)c1)NC12CCC(NC(=O)c3cc(C4CC4)no3)(CC1)CC2O (stereo not drawn) [Compound 327, N-{4-[2-(4-chloro-3-fluorophenoxy)acetamido]-3-hydroxybicyclo[2.2.2]octan-1-yl}-3-cyclopropyl-1,2-oxazole-5-carboxamide] | 50 to 250
O=C(COc1ccc(Cl)c(F)c1)NC12CCC(NC(=O)c3csc(C4CC4)n3)(CC1)C[C@@H]2O [Compound 751, N-{(3S)-4-[2-(4-chloro-3-fluorophenoxy)acetamido]-3-hydroxybicyclo[2.2.2]octan-1-yl}-2-cyclopropyl-1,3-thiazole-4-carboxamide] | < 50
O=C(COc1ccc(Cl)cc1)NC12CC(NC(=O)c3cnc(C(F)F)cn3)(C1)C2 [Compound 202, N-{3-[2-(4-chlorophenoxy)acetamido]bicyclo[1.1.1]pentan-1-yl}-5-(difluoromethyl)pyrazine-2-carboxamide] | 50 to 250
Cc1nn(C)c(C(=O)NC23CC(NC(=O)COc4ccc(Cl)c(Cl)c4)(C2)C3)c1F [Compound 500, N-{3-[2-(3,4-dichlorophenoxy)acetamido]bicyclo[1.1.1]pentan-1-yl}-4-fluoro-1,3-dimethyl-1H-pyrazole-5-carboxamide] | < 50
Cc1nc(C(=O)NC23CCC(NC(=O)COc4ccc(Cl)c(F)c4)(CC2)[C@@H](O)C3)n[nH]1 [Compound 673, N-{(3S)-4-[2-(4-chloro-3-fluorophenoxy)acetamido]-3-hydroxybicyclo[2.2.2]octan-1-yl}-5-methyl-1H-1,2,4-triazole-3-carboxamide] | 50 to 250
Cc1cnc(C(=O)NC23CC(NC(=O)COc4ccc(Cl)c(Cl)c4)(C2)C3)cn1 [Compound 131, N-{3-[2-(3,4-dichlorophenoxy)acetamido]bicyclo[1.1.1]pentan-1-yl}-5-methylpyrazine-2-carboxamide] | 50 to 250
COc1cc(C(=O)NC23CC(NC(=O)COc4ccc(Cl)c(Cl)c4)(C2)C3)on1 [Compound 709, N-{3-[2-(3,4-dichlorophenoxy)acetamido]bicyclo[1.1.1]pentan-1-yl}-3-methoxy-1,2-oxazole-5-carboxamide] | 50 to 250
O=C(COc1ccc(Cl)c(F)c1)NC12CC(NC(=O)c3ccc4cccnc4n3)(C1)C2 [Compound 669, N-{3-[2-(4-chloro-3-fluorophenoxy)acetamido]bicyclo[1.1.1]pentan-1-yl}-1,8-naphthyridine-2-carboxamide] | 250 to 1000
C[S+]([O-])c1ccccc1C(=O)NC12CC(NC(=O)COc3ccc(Cl)c(F)c3)(C1)C2 (stereo not drawn) [Compound 858, N-{3-[2-(4-chloro-3-fluorophenoxy)acetamido]bicyclo[1.1.1]pentan-1-yl}-2-(methanesulfinyl)benzamide] | 1000 to 2000
O=C(COc1ccc(Cl)c(F)c1)NC12CCC(NC(=O)c3cnc(C(F)F)cn3)(CC1)C(F)C2 (stereo not drawn) [Compound 373, N-{4-[2-(4-chloro-3-fluorophenoxy)acetamido]-2-fluorobicyclo[2.2.2]octan-1-yl}-5-(difluoromethyl)pyrazine-2-carboxamide] | 250 to 1000
O=C(COc1ccc(Cl)c(F)c1)NC12CC(NC(=O)c3cccc(F)c3F)(C1)C2 [Compound 509, N-{3-[2-(4-chloro-3-fluorophenoxy)acetamido]bicyclo[1.1.1]pentan-1-yl}-2,3-difluorobenzamide] | 250 to 1000
